Patent US8889671B2, “Compounds and methods for treating bacterial infections” (AstraZeneca AB, priority 2013, dated 2014)
In brackets after ≈: the same amount, converted by molar mass. Like-named read-outs stand apart in the source and are kept apart here.

Key:
[1] = target: Escherichia coli DNA gyrase A/B tetramer (Escherichia coli (strain K12), UniProt P0AES4+P0AES6); test: DNA gyrase supercoiling activity fluorescence polarisation assay; assay type: biochemical; settings: Eco Gyr FP Mean IC50, E. coli DNA gyrase supercoiling, 0.3 mM ATP
Procedure, shortened: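 IC50 derived by nonlinear regression from BODIPY-FL fluorescence anisotropy, read 60 min after quenching with labelled triplex-forming probe (pH 3.5). Reaction: 5 nM gyrase tetramer, 130 micrograms/mL relaxed plasmid, 0.3 mM ATP, 4 mM MgCl2, pH 7.5, typically 30 min at ambient temperature, 5-10 compound concentrations.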

Streptococcus pneumoniae = test: Susceptibility testing (MIC) Assay 1, broth microdilution; assay type: cell-based
Staphylococcus aureus = test: as above; assay type: cell-based; settings: Staphylococcus aureus
Streptococcus pyogenes = test: as above; assay type: cell-based; settings: Streptococcus pyogenes, Streptococcus pyrgenes, in vivo strain; read-out: Spy MIC
Escherichia coli = test: Susceptibility testing (MIC) Assay 2, broth microdilution; assay type: cell-based; settings: K12, read-out: Eco MIC
Klebsiella pneumoniae = test: as above; assay type: cell-based; settings: clinical isolate, mucoid, read-out: Kpn MIC
Haemophilus influenzae = test: as above; assay type: cell-based; settings: ATCC51907, Haemophilus influenzae, ATCC 51907, in vivo strain, read-out: Hin MIC
Pseudomonas aeruginosa = test: as above; assay type: cell-based; settings: PAO1, read-out: Pae MIC
[2] = in vivo strain (footnote b), read-out: Spn(b) MIC
[3] = in vivo strain (footnote c), read-out: Spn(c) MIC
[4] = Staphylococcus aureus in vivo strain, MSQS, read-out: Sau(d) MIC
[5] = in vivo strain, MRQR, read-out: Sau(e) MIC

Row | Structure (SMILES) | IC50 [1] [nM] | MIC (Streptococcus pneumoniae; [2]) [µM] | MIC (Streptococcus pneumoniae; [3]) [µM] | MIC (Staphylococcus aureus; [4]) [µM] | MIC (Staphylococcus aureus; [5]) [µM] | MIC (Staphylococcus aureus; serum, read-out: Sau(f) MIC) [µM] | MIC (Streptococcus pyogenes) [µM] | MIC (Escherichia coli) [µM] | MIC (Klebsiella pneumoniae) [µM] | MIC (Haemophilus influenzae) [µM] | MIC (Pseudomonas aeruginosa) [µM]
1 | C[C@@H]1CN2c3c(cc4c(N5C[C@@H](CF)OC5=O)noc4c3Cl)CC3(C(=O)NC(=O)NC3=O)[C@H]2[C@H](C)O1 [Example 32, (2R,4S,4aS)-11-Chloro-8-((S)-5-(fluoromethyl)-2-oxooxazolidin-3-yl)-2,4-dimethyl-2,4,4a,6-tetrahydro-1H,1′H-spiro[isoxazolo[4,5-g][1,4]oxazino[4,3-a]quinoline-5,5′-pyrimidine]-2′,4′,6′(3′H)-trione] | 630 | 0.39 (≈ 0.204 µg/mL) | 0.39 (≈ 0.204 µg/mL) | < 0.2 | 0.78 (≈ 0.407 µg/mL) | 0.39 (≈ 0.204 µg/mL) | < 0.2 | 1.5 (≈ 0.783 µg/mL) | 200 (≈ 104 µg/mL) | 0.27 (≈ 0.141 µg/mL) | 200 (≈ 104 µg/mL)
2 | C[C@@H]1CN2c3c(cc4c(N5C(=O)OC[C@@H]5CCO)noc4c3F)CC3(C(=O)NC(=O)NC3=O)[C@H]2[C@H](C)O1 [Example 31, (2R,4S,4aS)-11-Fluoro-8-((S)-4-(2-hydroxyethyl)-2-oxooxazolidin-3-yl)-2,4-dimethyl-2,4,4a,6-tetrahydro-1H,1′H-spiro[isoxazolo[4,5-g][1,4]oxazino[4,3-a]quinoline-5,5′-pyrimidine]-2′,4′,6′(3′H)-trione] | 420 | 0.78 (≈ 0.404 µg/mL) | 0.78 (≈ 0.404 µg/mL) | 3.1 (≈ 1.6 µg/mL) | 12 (≈ 6.21 µg/mL) | 3.1 (≈ 1.6 µg/mL) | 0.39 (≈ 0.202 µg/mL) | 100 (≈ 51.7 µg/mL) | > 200 | 0.39 (≈ 0.202 µg/mL) | > 200
3 | C[C@@H]1CN2c3c(cc4c(N5C(=O)OC[C@H]5c5cnccn5)noc4c3F)CC3(C(=O)NC(=O)NC3=O)[C@H]2[C@H](C)O1 [Example 61, (2R,4S,4aS)-11-Fluoro-2,4-dimethyl-8-((R)-2-oxo-4-(pyrazin-2-yl)oxazolidin-3-yl)-2,4,4a,6-tetrahydro-1H,1′H-spiro[isoxazolo[4,5-g][1,4]oxazino[4,3-a]quinoline-5,5′-pyrimidine]-2′,4′,6′(3′H)-trione] | 340 | 0.78 (≈ 0.43 µg/mL) | 0.78 (≈ 0.43 µg/mL) | 0.78 (≈ 0.43 µg/mL) | 3.1 (≈ 1.71 µg/mL) | 1.6 (≈ 0.882 µg/mL) | 0.78 (≈ 0.43 µg/mL) | 100 (≈ 55.1 µg/mL) | > 200 | < 0.2 | > 200
4 | C[C@@H]1CN2c3c(cc4c(N5C(=O)OC[C@@H]5c5ccccn5)noc4c3F)CC3(C(=O)NC(=O)NC3=O)[C@H]2[C@H](C)O1 [Example 56, (2R,4S,4aS)-11-fluoro-2,4-dimethyl-8-((S)-2-oxo-4-(pyridin-2-yl)oxazolidin-3-yl)-2,4,4a,6-tetrahydro-1H,1′H-spiro[isoxazolo[4,5-g][1,4]oxazino[4,3-a]quinoline-5,5′-pyrimidine]-2′,4′,6′(3′H)-trione] | 1900 | 6.2 (≈ 3.41 µg/mL) | 6.2 (≈ 3.41 µg/mL) | 3.1 (≈ 1.71 µg/mL) | 6.2 (≈ 3.41 µg/mL) | 25 (≈ 13.8 µg/mL) | 3.1 (≈ 1.71 µg/mL) | > 200 | > 200 | 3.1 (≈ 1.71 µg/mL) | > 200
5 | C[C@@H]1CN(c2noc3c(F)c4c(cc23)CC2(C(=O)NC(=O)NC2=O)[C@H]2[C@H](C)O[C@H](C)CN42)C(=O)O1 [Example 4, (2R,4S,4aS)-11-Fluoro-2,4-dimethyl-8-[(5R)-5-methyl-2-oxo-1,3-oxazolidin-3-yl]-1,2,4,4a-tetrahydro-2′H,6H-spiro[1,4-oxazino[4,3-a][1,2]oxazolo[4,5-g]quinoline-5,5′-pyrimidine]-2′,4′,6′(1′H,3′H)-trione] | 390 | 0.42 (≈ 0.205 µg/mL) | 0.46 (≈ 0.224 µg/mL) | 0.25 (≈ 0.122 µg/mL) | 0.67 (≈ 0.327 µg/mL) | 0.47 (≈ 0.229 µg/mL) | 0.36 (≈ 0.175 µg/mL) | 9.9 (≈ 4.83 µg/mL) | 200 (≈ 97.5 µg/mL) | 0.47 (≈ 0.229 µg/mL) | > 200
6 | C[C@@H]1CN2c3c(cc4c(N5C(=O)OC[C@@H]5[C@H](O)CO)noc4c3F)CC3(C(=O)NC(=O)NC3=O)[C@H]2[C@H](C)O1 [Example 73] | 340 | 0.78 (≈ 0.416 µg/mL) | 3.1 (≈ 1.65 µg/mL) | 25 (≈ 13.3 µg/mL) | 100 (≈ 53.3 µg/mL) | 25 (≈ 13.3 µg/mL) | 0.78 (≈ 0.416 µg/mL) | > 200 | > 200 | 6.2 (≈ 3.31 µg/mL) | > 200
7 | COC[C@H]1CN(c2noc3c(F)c4c(cc23)CC2(C(=O)NC(=O)NC2=O)[C@H]2[C@H](C)O[C@H](C)CN42)C(=O)O1 [Example 36] | 590 | 1.6 (≈ 0.828 µg/mL) | 1.6 (≈ 0.828 µg/mL) | 0.78 (≈ 0.404 µg/mL) | 3.1 (≈ 1.6 µg/mL) | 1.6 (≈ 0.828 µg/mL) | 0.78 (≈ 0.404 µg/mL) | 100 (≈ 51.7 µg/mL) | > 200 | 1.6 (≈ 0.828 µg/mL) | > 200
